Measurements as given in ChEMBL document CHEMBL3137667, “[Drug-induced liver injury; fourteenth updated edition of the bibliographic database of liver injuries and related drugs]” (Gastroenterol Clin Biol, 2004).

Assays:
[1] = human
[2] = human; remark: listed apart in the source
[3] = human; remark: listed apart in the source
[4] = Highest frequency of acute liver toxicity observed during clinical trials, expressed as a percentage. [column '% AIGUE' in source]; details: human
[5] = human, serum, 4383 h
[6] = human; remark: listed apart in the source
[7] = human, serum
[8] = human; remark: listed apart in the source
[9] = human; remark: listed apart in the source
[10] = human; remark: listed apart in the source
[11] = Presence of at least one case with successful reintroduction. [column 'REINT' in source]; details: human
[12] = Highest frequency of moderate liver toxicity observed during clinical trials, expressed as a percentage. [column '% BIOL' in source]; details: human
[13] = human; remark: listed apart in the source
[14] = human, serum; remark: listed apart in the source
[15] = human; remark: listed apart in the source
[16] = Times to onset, minimal and maximal, observed in the indexed observations. [column 'DELAI' in source]; details: human
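Throughout, for Hepatotoxicity (association with vascular disease): count of indexed literature references reporting vascular liver injury in humans, e.g. peliosis hepatitis, hepatic veno-occlusive disease or Budd-Chiari syndrome.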
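Throughout, for Hepatotoxicity (benign tumour): value is a count of indexed literature references citing a benign tumour confirmed by histopathology.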
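Throughout, for Hepatotoxicity (choleostasis): human cholestatic liver injury, shown by histopathology or by peak ALT or AST elevation over alkaline phosphatase ratio below 2, value counts indexed literature reports.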
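Throughout, for Hepatotoxicity (chronic liver disease): chronic liver injury confirmed by histopathology or persistently raised serum aminotransferase activity beyond 6 months, value given as the count of indexed literature references.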
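Throughout, for Hepatotoxicity (cirrhosis): value is a count of indexed literature references reporting cirrhosis confirmed by histopathology.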
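Throughout, for Hepatotoxicity (cytolytic): human cytolytic liver injury, shown by histopathology or by a ratio above 5 of peak ALT or AST elevation to alkaline phosphatase elevation, value counts indexed references.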
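Throughout, for Hepatotoxicity (granulomatous hepatitis): value is a count of indexed literature references reporting granulomatous liver disease confirmed by histopathology.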
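Throughout, for Hepatotoxicity (malignant tumour): malignant tumour confirmed by histopathology, value gives the count of indexed literature references reporting it.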
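Throughout, for Hepatotoxicity (severe hepatitis): human clinical data: severe hepatitis, meaning potentially life-threatening liver failure or clinically observed cases, the value counts how many indexed literature references report it.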
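Throughout, for Hepatotoxicity (steatosis): steatosis confirmed by histopathology, value is the count of indexed references.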

SMILES	Hepatotoxicity (cirrhosis) [1]	Hepatotoxicity (granulomatous hepatitis) [2]	Hepatotoxicity (severe hepatitis) [3]	Hepatotoxicity (acute) [4]	Hepatotoxicity (chronic liver disease) [5]	Hepatotoxicity (benign tumour) [6]	Hepatotoxicity (acute) [7]	Hepatotoxicity (association with vascular disease) [8]	Hepatotoxicity (cytolytic) [9]	Hepatotoxicity (steatosis) [10]	Hepatotoxicity (successful reintroduction) [11]	Hepatotoxicity (moderate) [12]	Hepatotoxicity (choleostasis) [13]	Hepatotoxicity (moderate) [14]	Hepatotoxicity (malignant tumour) [15]	Hepatotoxicity (time to onset) [16]	other results
CCN(CC)CCCN(c1ccccc1)C1Cc2ccccc2C1 [APRINDINE]	0	1	0	0.1%	0	0	9	0	4	0	yes	1%	7	1	0	5 days - 2 months	–
C/C=C(/CC)C(=O)NC(N)=O	0	0	0	0%	0	0	1	0	0	0	yes	0%	0	0	0	3 weeks	–
CCC1(c2ccccc2)C(=O)NC(=O)N(C)C1=O (stereo unspecified) [MEPHOBARBITAL]	0	0	0	0%	0	0	1	0	1	0	yes	0%	0	0	0	3 months	–
O=C1NS(=O)(=O)c2ccccc21 [SACCHARIN]	0	–	–	–	0	0	1	0	–	0	yes	–	–	0	0	2 weeks - 2 months	Hepatotoxicity (granulomatous hepatitis) ([2]; Liver): 0; Hepatotoxicity (severe hepatitis) ([3]; Liver): 0; Hepatotoxicity (acute) ([4]; Liver): 0%; Hepatotoxicity (cytolytic) ([9]; Liver): 1; Hepatotoxicity (moderate) ([12]; Liver): 0%; Hepatotoxicity (choleostasis) ([13]; Liver): 0
Nc1nc(N)c2nc(-c3ccccc3)c(N)nc2n1	0	0	1	0%	0	0	1	0	1	0	yes	0%	0	1	0	2 days - 3 weeks	–
CN(C)C/C=C(/c1ccc(Br)cc1)c1cccnc1 [ZIMELDINE]	0	2	0	6.6%	0	0	4	0	3	0	yes	20.5%	3	9	0	2 weeks - 2 months	–
